The values below come from patent US11685904B2 (priority 2019, dated 2023).

Entries after “also recorded” stand apart in the source; their conditions may differ.

The test system of assay [1] is vaccinia virus expressing the TK.007 HSV-TK variant (IGV-035). On the set-up: species or system BALB/c mice. As to conditions: mouse, in vivo.
For assay [2], the system named is vaccinia virus expressing the TK.007 HSV-TK variant (IGV-077). More on the design: species or system mice. As to conditions: mouse, in vivo.

Consider `Nc1nc(O)c2ncn(COC(CO)CO)c2n1` [ganciclovir], for which, in assay [1], the “average lesion size compared to the vehicle (no vaccinia virus) group” value was “comparable to the group treated with vehicle”, the “healing of topical lesions caused by vaccinia virus” value was “healed faster”, the “lesion size compared to the non-treated group” value was “significantly smaller” and the “virus shedding from the tail scarification site” value was “reduced virus shedding”. Besides, in assay [2], the “virus replication in tumors (plaque assay)” value is “significantly reduced; also recorded: completely inhibited” and the “virus-mediated GFP expression in tumors (immunohistochemistry)” value is “Low levels; also recorded: no virus-mediated GFP expression was detected”.
